{"source": "paper PMC7248570", "about": "(Frontiers in Microbiology, 2020)", "key": {"CgmycLAO": {"tested_on": "CgmycLAO", "type": "biochemical, Infundibulicybe geotropa"}, "CgLAO": {"tested_on": "CgLAO", "type": "biochemical, Infundibulicybe geotropa"}}, "data": [{"smiles": "CC(C)C[C@H](N)C(=O)O", "note": "[L-Leu]", "values": [{"measurement": "Km", "setting": "CgmycLAO", "value": "1520 ± 60", "unit": "µM"}, {"measurement": "Km", "setting": "CgLAO", "value": "550 ± 60", "unit": "µM"}]}]}
